According to PubChem BioAssay (NCI):
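Grown in 96-well plates, cells were treated for 48 hours with each compound at five concentrations. Insufficient inhibition: endpoint recorded as highest concentration tested. Here, GI50 denotes the concentration required for 50% inhibition of growth. TGI: concentration producing complete growth inhibition.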

What was measured:
Experiment in all cases: NCI tumour cell line growth inhibition, 48 h
[1] = system: 786-0 renal
[2] = system: A498 renal
[3] = system: A549 NSCLC
[4] = system: ACHN renal
[5] = system: BT-549 breast
[6] = system: CAKI-1 renal
[7] = system: CCRF-CEM leukemia
[8] = system: DU-145 prostate
[9] = system: EKVX NSCLC
[10] = system: HCC-2998 colon
[11] = system: HCT-116 colon
[12] = system: HCT-15 colon
[13] = system: HL-60(TB) leukemia
[14] = system: HOP-62 NSCLC
[15] = system: HOP-92 NSCLC
[16] = system: HS 578T breast
[17] = system: HT29 colon
[18] = system: IGROV1 ovarian
[19] = system: K-562 leukemia
[20] = system: KM12 colon
[21] = system: LOX IMVI melanoma
[22] = system: M14 melanoma
[23] = system: MALME-3M melanoma
[24] = system: MDA-MB-231 breast
[25] = system: MOLT-4 leukemia
[26] = system: NCI-H226 lung
[27] = system: NCI-H23 lung
[28] = system: NCI-H460 lung
[29] = system: NCI-H522 lung
[30] = system: NCI/ADR-RES ovarian
[31] = system: OVCAR-3 ovarian
[32] = system: OVCAR-4 ovarian
[33] = system: OVCAR-5 ovarian
[34] = system: OVCAR-8 ovarian
[35] = system: PC-3 prostate
[36] = system: RPMI-8226 leukemia
[37] = system: SF-268 CNS
[38] = system: SF-539 CNS
[39] = system: SK-MEL-2 melanoma
[40] = system: SK-MEL-28 melanoma
[41] = system: SK-MEL-5 melanoma
[42] = system: SK-OV-3 ovarian
[43] = system: SN12C renal
[44] = system: SNB-19 CNS
[45] = system: SNB-75 CNS
[46] = system: SR leukemia
[47] = system: SW-620 colon
[48] = system: T-47D breast
[49] = system: TK-10 renal
[50] = system: U251 CNS
[51] = system: UACC-257 melanoma
[52] = system: UACC-62 melanoma
[53] = system: UO-31 renal

## CC(C)OC(=O)Nc1ccc(-c2nc(-c3cccc(OCCN4CCOCC4)c3)c(-c3ccnc(Br)c3)[nH]2)cc1
[1]
  GI50: 1.24 µM
  TGI: 3.54 µM
[2]
  GI50: 1.23 µM
  TGI: 4.12 µM
[3]
  GI50: 3.49 µM
  TGI: > 100 µM
[4]
  GI50: 3.22 µM
  TGI: > 100 µM
[5]
  GI50: 2.86 µM
  TGI: > 100 µM
[6]
  GI50: 2.85 µM
  TGI: > 100 µM
[7]
  GI50: 2.46 µM
  TGI: > 100 µM
[8]
  GI50: 4.8 µM
  TGI: > 100 µM
[9]
  GI50: 2.39 µM
  TGI: 7.55 µM
[10]
  GI50: 3.1 µM
  TGI: > 100 µM
[11]
  GI50: 2.96 µM
  TGI: > 100 µM
[12]
  GI50: 1.3 µM
  TGI: 4.26 µM
[13]
  GI50: 1.87 µM
  TGI: 4.59 µM
[14]
  GI50: 3.04 µM
  TGI: > 100 µM
[15]
  GI50: 2.45 µM
  TGI: 7.99 µM
[16]
  GI50: 0.461 µM
  TGI: 2.76 µM
[17]
  GI50: 2.69 µM
  TGI: > 100 µM
[18]
  GI50: 4.39 µM
  TGI: > 100 µM
[19]
  GI50: 1.58 µM
  TGI: > 100 µM
[20]
  GI50: 3.12 µM
  TGI: > 100 µM
[21]
  GI50: 1.56 µM
  TGI: 3.39 µM
[22]
  GI50: 2.78 µM
  TGI: 11.7 µM
[23]
  GI50: 1.56 µM
  TGI: 3.39 µM
[24]
  GI50: 3.54 µM
  TGI: 56.7 µM
[25]
  GI50: 2.2 µM
  TGI: > 100 µM
[26]
  GI50: 3.75 µM
  TGI: > 100 µM
[27]
  GI50: 1.99 µM
  TGI: 4.72 µM
[28]
  GI50: 3.63 µM
  TGI: > 100 µM
[29]
  GI50: 3.86 µM
  TGI: > 100 µM
[30]
  GI50: 4.3 µM
  TGI: > 100 µM
[31]
  GI50: 4.91 µM
  TGI: > 100 µM
[32]
  GI50: 4.79 µM
  TGI: > 100 µM
[33]
  GI50: 4.97 µM
  TGI: > 100 µM
[34]
  GI50: 4.32 µM
  TGI: > 100 µM
[35]
  GI50: 2.96 µM
  TGI: > 100 µM
[36]
  GI50: 0.549 µM
  TGI: 2.91 µM
[37]
  GI50: 4.05 µM
  TGI: > 100 µM
[38]
  GI50: 1.52 µM
  TGI: 5.46 µM
[39]
  GI50: 2.87 µM
  TGI: 9.13 µM
[40]
  GI50: 1.67 µM
  TGI: 4.16 µM
[41]
  GI50: 1.79 µM
  TGI: 3.27 µM
[42]
  GI50: 2.49 µM
  TGI: 5.8 µM
[43]
  GI50: 4.29 µM
  TGI: > 100 µM
[44]
  GI50: 3.22 µM
  TGI: > 100 µM
[45]
  GI50: 0.611 µM
  TGI: 5.17 µM
[46]
  GI50: 2.4 µM
  TGI: > 100 µM
[47]
  GI50: 3.12 µM
  TGI: > 100 µM
[48]
  GI50: 2.61 µM
  TGI: > 100 µM
[49]
  GI50: 6.15 µM
  TGI: > 100 µM
[50]
  GI50: 2.01 µM
  TGI: > 100 µM
[51]
  GI50: 2.72 µM
  TGI: 8.82 µM
[52]
  GI50: 2.31 µM
  TGI: 6.28 µM
[53]
  GI50: 2.84 µM
  TGI: > 100 µM
